The record followed here is patent publication US11358962B2, “2-hetaryl imidazol[1,2-a]pyridine derivatives” (Hoffmann-La Roche Inc., priority 2013, dated 2022).

SMILES strings stand for the structures.

One experiment deals with native tau aggregates. In words: TAU radioligand in vitro displacement assay ([3H]T808, autoradiography on human AD brain sections). It is filed as binding. Particulars: compound 10 nM, radioligand [3H]T808 10 nM. Summed up: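 Displacement of 10 nM [3H]T808 from 10 μm human AD brain cryosections by test compounds at various concentrations, 30 min at room temperature in 50 mM Tris pH 7.4, then cold washes. Autoradiography after 5-day exposure; specific binding = ROI signal minus white-matter signal, expressed as % displacement.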
Regarding `COc1ccc(-c2cn3ccc(N4CCN(CCF)CC4)cc3n2)cc1` [Example 15, 7-[4-(2-Fluoro-ethyl)-piperazin-1-yl]-2-(4-methoxy-phenyl)-imidazo[1,2-a]pyridine], the “% displacement of [3H]T808 (10 nM) at 10 nM” value (“% displacement … at 10 nM” for short) worked out at 33%.
Consider `CN(C)c1ccn2cc(-c3ccc(COCCF)cc3)nc2c1` [Example 105, 2-[4-(2-Fluoroethoxymethyl)phenyl]-N,N-dimethyl-imidazo[1,2-a]pyridin-7-amine], for which the “% displacement … at 10 nM” value stood at 10%.
For the compound `COc1cc(-c2cn3ccc(NCCF)cc3n2)ccc1O` [Example 142, 4-(7-(2-fluoroethylamino)imidazo[1,2-a]pyridin-2-yl)-2-methoxyphenol], the “% displacement … at 10 nM” value came out at 11%.
Take `CSc1ccc(-c2cn3ccc(NCCF)cc3n2)cc1` [Example 79, (2-Fluoro-ethyl)-[2-(4-methylsulfanyl-phenyl)-imidazo[1,2-a]pyridin-7-yl]-amine]: the “% displacement … at 10 nM” value came out at 20%.
On to `COc1cc(-c2cn3ccc(NCCF)cc3n2)ccc1C` [Example 135, N-(2-fluoroethyl)-2-(3-methoxy-4-methylphenyl)imidazo[1,2-a]pyridin-7-amine], for which the “% displacement … at 10 nM” value is on record as 14%.
In the case of `COc1cccc(-c2cn3ccc(N(C)C)cc3n2)c1` [Example 32, [2-(3-Methoxy-phenyl)-imidazo[1,2-a]pyridin-7-yl]-dimethyl-amine], the “% displacement … at 10 nM” value turned out to be 36%.
For the compound `COCc1ccc(-c2cn3ccc(N(C)C)cc3n2)cc1` [Example 99, 2-[4-(Methoxymethyl)phenyl]-N,N-dimethyl-imidazo[1,2-a]pyridin-7-amine acetic acid adduct], the “% displacement … at 10 nM” value came out at 37%.
Same read-out and setting: the result for `CNc1ccn2cc(-c3ccc4c(c3)OCCCO4)nc2c1` [Example 96, N-[2-(3,4-Dihydro-2H-benzo[b][1,4]dioxepin-7-yl)-imidazo[1,2-a]pyridin-7-yl]-methyl-amine] reads 35%.
Turning to `CNc1ccn2cc(-c3ccc(Cl)s3)nc2c1` [Example 127, N-[2-(5-Chloro-thiophen-2-yl)-imidazo[1,2-a]pyridin-7-yl]-methyl-amine], the “% displacement … at 10 nM” value was determined as 26%.
Regarding `CNc1ccn2cc(-c3ccccc3)nc2c1` [Example 4, N-Methyl-2-phenylimidazo[1,2-a]pyridin-7-amine], the “% displacement … at 10 nM” value is reported as 61%.
`CNc1ccn2cc(-c3ccc(N4CCOCC4)cc3)nc2c1` [Example 103, Methyl-[2-(4-morpholin-4-yl-phenyl)-imidazo[1,2-a]pyridin-7-yl]-amine]: the “% displacement … at 10 nM” value stood at 47%.
For the compound `CNc1ccn2cc(-c3ccc(O)c(OC)c3)nc2c1` [Example 81, 2-Methoxy-4-(7-methylamino-imidazo[1,2-a]pyridin-2-yl)-phenol], the “% displacement … at 10 nM” value is recorded as 47%.
On the same count and under the same terms, the result for `CNc1ccn2cc(-c3cc(C)ccc3O)nc2c1` [Example 128, 4-Methyl-2-(7-methylamino-imidazo[1,2-a]pyridin-2-yl)-phenol] reads 34%; that for `CO[C@H]1CCN(c2ccn3cc(-c4ccc(C)cc4)nc3c2)C1` [Example 88, 7-((S)-3-Methoxy-pyrrolidin-1-yl)-2-p-tolyl-imidazo[1,2-a]pyridine], 34%; that for `FCCNc1ccn2cc(-c3ccco3)nc2c1` [Example 149, N-(2-Fluoroethyl)-2-(furan-2-yl)imidazo[1,2-a]pyridin-7-amine], 23%.
With `FCCNc1ccn2cc(-c3ccccc3)nc2c1` [Example 1, N-(2-Fluoroethyl)-2-phenylimidazo[1,2-a]pyridin-7-amine 2,2,2-trifluoroacetate], the “% displacement … at 10 nM” value is recorded as 40%.
With `FCOc1ccc(-c2cn3ccc(N4CCOCC4)cc3n2)cc1` [Example 49, 2-(4-Fluoromethoxy-phenyl)-7-morpholin-4-yl-imidazo[1,2-a]pyridine], the “% displacement … at 10 nM” value was determined as 10%.
As for `CNc1ccn2cc(-c3cccc(OCCF)c3)nc2c1` [Example 137, 2-(3-(2-fluoroethoxy)phenyl)-N-methylimidazo[1,2-a]pyridin-7-amine], the “% displacement … at 10 nM” value was determined as 41%.
Still for that read-out and setting: the result for `COc1cccc(-c2cn3ccc(N4CCOCC4)cc3n2)c1` [Example 10, 2-(3-Methoxy-phenyl)-7-morpholin-4-yl-imidazo[1,2-a]pyridine] reads 27%.
Same read-out and setting: the result for `CNc1ccn2cc(-c3ccc(N(C)Cc4ccccc4)cc3)nc2c1` [Example 110, 2-(4-(benzyl(methyl)amino)phenyl)-N-methylimidazo[1,2-a]pyridin-7-amine] reads 14%; that for `FCCOc1ccc(-c2cn3ccc(NC4CC4)cc3n2)cc1` [Example 124, N-Cyclopropyl-2-[4-(2-fluoroethoxy)phenyl]imidazo[1,2-a]pyridin-7-amine], 39%; that for `FCCC1CCN(c2ccn3cc(-c4ccc5c(c4)OCCO5)nc3c2)CC1` [Example 33, 2-(2,3-Dihydro-benzo[1,4]dioxin-6-yl)-7-[4-(2-fluoro-ethyl)-piperidin-1-yl]-imidazo[1,2-a]pyridine], 5%.
Turning to `Cc1cccc(-c2cn3ccc(N4CCC(CCF)CC4)cc3n2)c1` [Example 85, 7-[4-(2-Fluoro-ethyl)-piperidin-1-yl]-2-m-tolyl-imidazo[1,2-a]pyridine], the “% displacement … at 10 nM” value is recorded as 17%.
Take `CCN(CC)c1ccc(-c2cn3ccc(NC)cc3n2)cc1` [Example 97, N-[2-(4-Diethylamino-phenyl)-imidazo[1,2-a]pyridin-7-yl]-methyl-amine]: the “% displacement … at 10 nM” value is recorded as 18%.
For the compound `CNc1ccn2cc(-c3sccc3Cl)nc2c1` [Example 112, N-[2-(3-Chloro-thiophen-2-yl)-imidazo[1,2-a]pyridin-7-yl]-methyl-amine], the “% displacement … at 10 nM” value came to 6%.
`FCCCOc1ccc(-c2cn3ccc(NC4CC4)cc3n2)cc1` [Example 148, N-Cyclopropyl-2-[4-(3-fluoropropoxy)phenyl]imidazo[1,2-a]pyridin-7-amine]: the “% displacement … at 10 nM” value amounted to 20%.
For `CN(C)c1ccc(-c2cn3ccc(N4CCC(F)CC4)cc3n2)cc1` [Example 41, {4-[7-(4-Fluoro-piperidin-1-yl)-imidazo[1,2-a]pyridin-2-yl]-phenyl}-dimethyl-amine], the “% displacement … at 10 nM” value is 18%.
Consider `COc1ccc(-c2cn3ccc(N4CCCCC4)cc3n2)cc1` [Example 12, 2-(4-Methoxy-phenyl)-7-piperidin-1-yl-imidazo[1,2-a]pyridine], for which the “% displacement … at 10 nM” value stood at 30%.
In the case of `COc1ccc(-c2cn3ccc(N4CC[C@H](F)C4)cc3n2)cc1` [6 (S), (S)-7-(3-Fluoropyrrolidin-1-yl)-2-(4-methoxyphenyl)imidazo[1,2-a]pyridine], the “% displacement … at 10 nM” value was found to be 8%.
Consider `Cc1cccc(-c2cn3ccc(N4CCC4)cc3n2)c1` [Example 55, 7-Azetidin-1-yl-2-m-tolyl-imidazo[1,2-a]pyridine], for which the “% displacement … at 10 nM” value is 27%.
With `CO[C@H]1CCN(c2ccn3cc(-c4ccccc4)nc3c2)C1` [Example 59, 7-((S)-3-Methoxy-pyrrolidin-1-yl)-2-phenyl-imidazo[1,2-a]pyridine], the “% displacement … at 10 nM” value worked out at 36%.
Still for that read-out and setting: the result for `CO[C@H]1CCN(c2ccn3cc(-c4cccc(C)c4)nc3c2)C1` [Example 48, 7-((S)-3-Methoxy-pyrrolidin-1-yl)-2-m-tolyl-imidazo[1,2-a]pyridine] reads 8%; that for `Cc1cccc(-c2cn3ccc(N4CCC(F)CC4)cc3n2)c1` [Example 69, 7-(4-Fluoro-piperidin-1-yl)-2-m-tolyl-imidazo[1,2-a]pyridine], 22%; that for `COc1ccc(-c2cn3ccc(N4CC4C)cc3n2)cc1` (centres unmarked) [Example 138, 2-(4-methoxyphenyl)-7-(2-methylaziridin-1-yl)imidazo[1,2-a]pyridine], 44%.
As for `CNc1ccn2cc(-c3cccc(OCCCF)c3)nc2c1` [Example 139, 2-(3-(3-fluoropropoxy)phenyl)-N-methylimidazo[1,2-a]pyridin-7-amine], the “% displacement … at 10 nM” value was 5%.
Turning to `CN(C)c1ccn2cc(-c3ccc4c(c3)OCO4)nc2c1` [Example 38, (2-Benzo[1,3]dioxol-5-yl-imidazo[1,2-a]pyridin-7-yl)-dimethyl-amine], the “% displacement … at 10 nM” value amounted to 52%.
On the same count and under the same terms, the result for `Oc1cccc(-c2cn3ccc(NCCF)cc3n2)c1` [Example 146, 3-(7-(2-fluoroethylamino)imidazo[1,2-a]pyridin-2-yl)phenol] reads 33%; that for `CNc1ccn2cc(-c3ccc(N4CCC(F)CC4)cc3)nc2c1` [Example 141, 2-(4-(4-fluoropiperidin-1-yl)phenyl)-N-methylimidazo[1,2-a]pyridin-7-amine], 35%.
As for `CNc1ccn2cc(-c3cccc(C(=O)OC)c3)nc2c1` [Example 122, Methyl 3-[7-(methylamino)imidazo[1,2-a]pyridin-2-yl]benzoate], the “% displacement … at 10 nM” value was 20%.
`CNc1ccn2cc(-c3cccc(C)c3)nc2c1` [Example 25, N-Methyl-2-m-tolylimidazo[1,2-a]pyridin-7-amine]: the “% displacement … at 10 nM” value came out at 54%.
In the case of `CNc1ccn2cc(-c3nc4ccccc4n3C)nc2c1` [Example 121, Methyl-[2-(1-methyl-1H-benzoimidazol-2-yl)-imidazo[1,2-a]pyridin-7-yl]-amine], the “% displacement … at 10 nM” value is reported as 19%.
In the case of `Cc1ccc(-c2cn3ccc(N(C)C)cc3n2)cc1C` [Example 52, [2-(3,4-Dimethyl-phenyl)-imidazo[1,2-a]pyridin-7-yl]-dimethyl-amine], the “% displacement … at 10 nM” value was found to be 27%.

The experiment is the same for the next values; noted with them: compound 1 uM, radioligand [3H]T808 10 nM.
As for `CNc1ccn2cc(-c3ccccc3)nc2c1` [Example 4, N-Methyl-2-phenylimidazo[1,2-a]pyridin-7-amine], the “% displacement of [3H]T808 (10 nM) at 1 uM” value came to 93%.
With `FCCNc1ccn2cc(-c3ccccc3)nc2c1` [Example 1, N-(2-Fluoroethyl)-2-phenylimidazo[1,2-a]pyridin-7-amine 2,2,2-trifluoroacetate], the “% displacement of [3H]T808 (10 nM) at 1 uM” value stood at 93%.
